Reference: patent US20150218212A1, “FLUORINATED EPOXYKETONE-BASED TETRAPEPTIDE COMPOUNDS AND USES THEREOF AS PROTEASOME INHIBITORS” (FLUORINOV PHARMA INC., priority 2012, published 2015)

Molecular target: T1, chymotrypsin-like (CT-L) proteasome activity (Homo sapiens, UniProt P20618+P28074)
T1 sequence (P28074 60-263): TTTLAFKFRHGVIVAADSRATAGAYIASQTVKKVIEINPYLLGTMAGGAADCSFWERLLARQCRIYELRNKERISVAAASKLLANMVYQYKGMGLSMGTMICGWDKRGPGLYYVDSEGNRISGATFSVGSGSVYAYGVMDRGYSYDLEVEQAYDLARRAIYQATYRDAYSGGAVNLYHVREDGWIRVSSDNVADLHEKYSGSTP
T1 sequence (P20618 29-241): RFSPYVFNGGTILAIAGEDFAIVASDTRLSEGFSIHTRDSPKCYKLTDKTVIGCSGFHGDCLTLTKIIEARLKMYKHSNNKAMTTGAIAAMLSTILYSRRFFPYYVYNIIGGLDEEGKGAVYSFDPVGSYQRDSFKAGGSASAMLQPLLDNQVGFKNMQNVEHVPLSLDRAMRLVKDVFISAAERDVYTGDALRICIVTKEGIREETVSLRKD
Assay: Proteasome enzymatic activity (tumor cell lysates), CT-L, KMS-11
Assay type: biochemical
Settings: KMS-11, mean ± standard deviation
Description: Human multiple myeloma cell lines 8226, H929, JJN3, KMH11, KMS11, KMS18, LP1, MM1S, OPM2 and U266 were grown in Iscove modified Dulbecco's medium (IMDM). Human leukemia cell lines K562, OCI-AML2 and U937 were cultured in RPMI-1640 medium. Primary peripheral blood mononuclear cells were isolated from multiple myeloma patients by Ficoll density gradient centrifugation and bone marrow aspirates were obtained from multiple myeloma patients at the Princess Margaret Cancer Centre of the University Health Network (UHN; Toronto, ON, Canada). Primary cells were cultured in IMDM. The collection and use of human tissue for this study was approved by the UHN institutional ethics review board. All cell culture media were obtained from the Ontario Cancer Institute Tissue Culture Media Facility (Toronto, ON, Canada) and were supplemented with 10% fetal calf serum, […] (Hyclone, Logan, Utah). All cells were grown in a humidified incubator at 37° C. with 5% CO2.
Cells were harvested by centrifugation at 1,200 rpm at room temperature. Cell pellets were washed with PBS (phosphate buffered saline) and lysed with assay lysis buffer (50 mM HEPES (N-2-hydroxyethylpiperazine-N′-2-ethanesulfonic acid), pH 7.5; 150 mM NaCl; 1% Triton X-100; 2 mM ATP). Cell lysates were incubated on ice for 30 minutes, mixed by vortex every 5 minutes, and then centrifuged at 12,000 g for 10 minutes. The supernatant was transferred to a 96-well plate. For each assay, 10 μg of total protein were incubated for 1 hour at 37° C. with increasing concentrations (1 nM to 10 μM) of test compound diluted in assay buffer (50 mM tris-HCl (tris(hydroxymethyl)aminomethane-HCl), pH 7.5; 150 mM NaCl). DMSO alone was used as a control in every assay plate. After incubation, a specific fluorogenic proteasome substrate was added to each assay reaction at a final concentration of 40 μM in a total volume of 100 μL. N-Succinyl-Leu-Leu-Val-Tyr-7-amino-4-methylcoumarin (Suc-Leu-Leu-Val-Tyr-AMC) was used for measuring chymotrypsin-like (CT-L) activity, t-butoxycarbonyl-Leu-Arg-Arg-7-amino-4-methylcoumarin (Boc-Leu-Arg-Arg-AMC) for trypsin-like (T-L) activity, and benzyloxycarbonyl-L-leucyl-L-leucyl-L-glutamyl-7-amino-4-methylcoumarin (Z-Leu-Leu-Glu-AMC) for caspase-like (C-L) activity. The excitation wavelength was set at 360 nm and the fluorescence emission wavelength of AMC was detected at 460 nm. The fluorescence of free AMC released during the enzymatic reaction was measured with a SpectraMax M5 fluorescent spectrophotometric plate reader (Molecular Devices, Sunnyvale, Calif.). AMC release rate was measured at 37° C. in a kinetic mode, recording every 5 minutes for 30 minutes. Experiments were performed in triplicate and repeated at least twice.
Table 8 summarizes the data of representative compounds of Formula I for cell viability and CT-L proteasome activity with OCI-AML-2 and KMS-11 cell lines.

| Structure (SMILES) | IC50 |
| --- | --- |
| CC(C)C[C@H](NC(=O)[C@H](Cc1ccccc1)NC(=O)[C@H](COC(F)F)NC(=O)[C@H](COC(F)F)NC(=O)CN1CCOCC1)C(=O)[C@@]1(C)CO1 [Example 11, (2S)-2-[[(2S)-3-(difluoromethoxy)-2-[[(2S)-3-(difluoromethoxy)-2-[(2-morpholinoacetyl)-amino]propanoyl]amino]propanoyl]amino]-N-[(1S)-3-methyl-1-[(2R)-2-methyloxirane-2-carbonyl]butyl]-3-phenyl-propanamide] | 50.7 ± 7.72 nM |
| CC(C)C[C@H](NC(=O)[C@H](COC(F)F)NC(=O)[C@H](COC(F)F)NC(=O)[C@H](CCc1ccccc1)NC(=O)CN1CCOCC1)C(=O)[C@@]1(C)CO1 [Example 7, (2S)-N-[(1S)-1-(difluoromethoxymethyl)-2-[[(1S)-1-(difluoromethoxymethyl)-2-[[(1S)-3-methyl-1-[(2R)-2-methyloxirane-2-carbo-nyl]butyl]amino]-2-oxo-ethyl]amino]-2-oxo-ethyl]-2-[(2-morpholinoacetyl)amino]-4-phenyl-butanamide] | 33.7 ± 5.6 nM |
| CC(C)C[C@H](NC(=O)[C@H](COC(F)F)NC(=O)CN1CCOCC1)C(=O)N[C@@H](Cc1ccccc1)C(=O)N[C@@H](CC(C)C)C(=O)[C@@]1(C)CO1 [Example 2, (2S)-N-[(1S)-1-benzyl-2-[[(1S)-3-methyl-1-[(2R)-2-methyloxirane-2-carbonyl]butyl]-amino]-2-oxo-ethyl]-2-[[(2S)-3-(difluoromethoxy)-2-[(2-morpholinoacetyl)amino]propanoyl]amino]-4-methyl-pentanamide] | 46.8 ± 1.58 nM |
| CC(C)C[C@H](NC(=O)[C@H](COC(F)F)NC(=O)CN1CCOCC1)C(=O)N[C@@H](Cc1ccccc1)C(=O)N[C@@H](Cc1ccccc1)C(=O)[C@@]1(C)CO1 [Example 3, (2S)-N-[(1S)-1-benzyl-2-[[(1S)-1-benzyl-2-[(2R)-2-methyloxiran-2-yl]-2-oxo-ethyl]amino]-2-oxo-ethyl]-2-[[(2S)-3-(difluoromethoxy)-2-[(2-morpholinoacetyl)-amino]propanoyl]amino]-4-methyl-pentan-amide] | 38.2 ± 2.81 nM |
| CC(C)C[C@H](NC(=O)[C@H](COC(F)F)NC(=O)CN1CCOCC1)C(=O)N[C@@H](COC(F)F)C(=O)N[C@@H](Cc1ccccc1)C(=O)[C@@]1(C)CO1 [Example 4, (2S)-N-[(1S)-2-[[(1S)-1-benzyl-2-[(2R)-2-methyloxiran-2-yl]-2-oxo-ethyl]amino]-1-(difluoromethoxymethyl)-2-oxo-ethyl]-2-[[(2S)-3-(difluoromethoxy)-2-[(2-mor-pholinoacetyl)amino]propanoyl]amino]-4 methyl-pentanamide] | 45.7 ± 8.26 nM |
| CC(C)C[C@H](NC(=O)[C@H](COC(F)F)NC(=O)[C@H](COC(F)F)NC(=O)[C@H](COC(F)F)NC(=O)CN1CCOCC1)C(=O)[C@@]1(C)CO1 [Example 17, (2S)-3-(difluoromethoxy)-N-[(1S)-1-(difluoromethoxymethyl)-2-[[(1S)-1-(difluoro-methoxymethyl)-2-[[(1S)-3-methyl-1-[(2R)-2-methyloxirane-2-carbonyl]butyl]amino]-2-oxo-ethyl]amino]-2-oxo-ethyl]-2-[(2-mor-pholinoacetyl)amino]-propanamide] | 77.8 ± 6.77 nM |
| CC(C)C[C@H](NC(=O)[C@H](COC(F)F)NC(=O)CN1CCOCC1)C(=O)N[C@@H](COC(F)F)C(=O)N[C@@H](CC(C)C)C(=O)[C@@]1(C)CO1 [Example 1, (2S)—N-[(1S)-1-(difluoromethoxymethyl)-2-[[(1S)-3-methyl-1-[(2R)-2-methyloxirane-2-carbonyl]butyl]amino]-2-oxo-ethyl]-2-[[(2S)-3-(difluoromethoxy)-2-[(2-morpholinoacetyl)amino]propanoyl]amino]-4-methyl-pentanamide] | 40.4 ± 6.97 nM |
